Laboratory results published in PubChem BioAssay AID256 (DTP/NCI, 2004).
Several values for one entry are separate records, joined by “and”; a condition that tells them apart may be missing. Identical values can stand only once. Toxic doses and inconclusive results are not listed. Rule for the calls: active = survival T/C of 150% or more; inactive = T/C below 125% in these data.

Test system: CD2F1 mice, L1210 leukemia ip, survival T/C
Assay: NCI In Vivo Anticancer Drug Screen. Data for tumor model L1210 Leukemia (intraperitoneal) in CD2F1 (CDF1) mice
Details: endpoint: mean survival time, higher = longer survival
In short: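 Compound-dosed mice with transplantable tumor versus matched vehicle controls; endpoint ratio T/C reported.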

[1] = dose: 100.0 mg/kg/injection, schedule: Q01DX001 (ip), vehicle: saline with Tween-80
[2] = dose: 200.0 mg/kg/injection, schedule: Q01DX001 (ip), vehicle: saline with Tween-80
[3] = dose: 100.0 mg/kg/injection, schedule: Q01DX001 (ip), vehicle: saline
[4] = dose: 50.0 mg/kg/injection, schedule: Q04DX002 (ip), vehicle: saline with Tween-80
[5] = dose: 100.0 mg/kg/injection, schedule: Q04DX003 (ip), vehicle: saline with Tween-80
[6] = dose: 200.0 mg/kg/injection, schedule: Q04DX003 (ip), vehicle: saline with Tween-80
[7] = dose: 400.0 mg/kg/injection, schedule: Q04DX003 (ip), vehicle: saline with Tween-80

Measured: T/C

CC(=O)NC1C(OC(C)=O)OC(COC(C)=O)C(OC(C)=O)C1OC(C)=O (stereo not drawn)
inactive: dose: 50.0 mg/kg/injection, schedule: Q01DX001 (ip), vehicle: saline with Tween-80 101 % of control | [1] 95 % of control | [2] 98 % of control

CN(C)C=Nc1ccc(C#N)cc1
inactive: dose: 50.0 mg/kg/injection, schedule: Q01DX001 (ip), vehicle: saline 97 % of control | [3] 97 % of control

CNC(=O)ON(C(C)=O)C(=O)NC
inactive: dose: 12.5 mg/kg/injection, schedule: Q01DX009 (ip), vehicle: saline 100 % of control and 107 % of control | dose: 25.0 mg/kg/injection, schedule: Q01DX009 (ip), vehicle: saline 107 % of control and 109 % of control | dose: 50.0 mg/kg/injection, schedule: Q01DX009 (ip), vehicle: saline 114 % of control and 109 % of control

O=C(OCC#CC#CCOC(=O)c1cccc2ccccc12)c1cccc2ccccc12
inactive: dose: 100.0 mg/kg/injection, schedule: Q04DX003 (ip), vehicle: Klucel (hydroxypropylcellulose) (HPC) 100 % of control | dose: 200.0 mg/kg/injection, schedule: Q04DX003 (ip), vehicle: Klucel (hydroxypropylcellulose) (HPC) 102 % of control | dose: 400.0 mg/kg/injection, schedule: Q04DX003 (ip), vehicle: Klucel (hydroxypropylcellulose) (HPC) 96 % of control

CC(=O)OC1(c2ccccc2)CC(=O)C=C1c1ccccc1 (stereo not drawn)
inactive: dose: 25.0 mg/kg/injection, schedule: Q04DX002 (ip), vehicle: saline with Tween-80 102 % of control | [4] 91 % of control | dose: 100.0 mg/kg/injection, schedule: Q04DX002 (ip), vehicle: saline with Tween-80 87 % of control

O=C(SC1=NCCN1)c1ccccc1
inactive: [3] 94 % of control | dose: 200.0 mg/kg/injection, schedule: Q01DX001 (ip), vehicle: saline 102 % of control

FC1(F)C2Cc3ccccc3C2C1(Cl)Cl (stereo not drawn)
inactive: dose: 75.0 mg/kg/injection, schedule: Q01DX001 (ip), vehicle: saline 103 % of control | dose: 150.0 mg/kg/injection, schedule: Q01DX001 (ip), vehicle: saline 101 % of control | dose: 300.0 mg/kg/injection, schedule: Q01DX001 (ip), vehicle: saline 100 % of control

CCCC1C(=O)N2C(N(C)C)=Nc3ccc(C)cc3N2C1=O (stereo not drawn)
inactive: [5] 94 % of control | [6] 96 % of control | [7] 96 % of control

c1ccc(N=Nn2c3ccccc3c3ccccc32)cc1
inactive: [1] 104 % of control | [2] 102 % of control | dose: 264.0 mg/kg/injection, schedule: Q01DX001 (ip), vehicle: saline with Tween-80 104 % of control | dose: 400.0 mg/kg/injection, schedule: Q01DX001 (ip), vehicle: saline with Tween-80 120 % of control | dose: 600.0 mg/kg/injection, schedule: Q01DX001 (ip), vehicle: saline with Tween-80 104 % of control

O=C(O)CC(C(=O)O)c1ccc([N+](=O)[O-])cc1 (stereo not drawn)
inactive: dose: 100.0 mg/kg/injection, schedule: Q01DX009 (ip), vehicle: saline with Tween-80 93 % of control | dose: 200.0 mg/kg/injection, schedule: Q01DX009 (ip), vehicle: saline with Tween-80 93 % of control | dose: 400.0 mg/kg/injection, schedule: Q01DX009 (ip), vehicle: saline with Tween-80 97 % of control

O=C(CCl)Nc1ccccn1
inactive: dose: 100.0 mg/kg/injection, schedule: Q01DX009 (ip), vehicle: saline 96 % of control | dose: 200.0 mg/kg/injection, schedule: Q01DX009 (ip), vehicle: saline 102 % of control | dose: 400.0 mg/kg/injection, schedule: Q01DX009 (ip), vehicle: saline 97 % of control

Cc1cn2ccccc2c[n+]1=O
inactive: dose: 5.0 mg/kg/injection, schedule: Q04DX003 (ip), vehicle: saline with Tween-80 103 % of control | dose: 10.0 mg/kg/injection, schedule: Q04DX003 (ip), vehicle: saline with Tween-80 108 % of control | dose: 20.0 mg/kg/injection, schedule: Q04DX003 (ip), vehicle: saline with Tween-80 97 % of control

NC1CCCCC1N.NC1CCCCC1N.[Cl-].[Ni] (stereo not drawn)
inactive: [4] 110 % of control

CC(CC(=O)O)c1ccc(F)cc1 (stereo not drawn)
inactive: [5] 101 % of control | [6] 100 % of control | [7] 95 % of control

CC(=O)Nc1nnc(-c2ccc([N+](=O)[O-])o2)s1
inactive: dose: 75.0 mg/kg/injection, schedule: Q04DX003 (ip), vehicle: saline 97 % of control | dose: 150.0 mg/kg/injection, schedule: Q04DX003 (ip), vehicle: saline 100 % of control | dose: 300.0 mg/kg/injection, schedule: Q04DX003 (ip), vehicle: saline 97 % of control

Nc1nc(=S)n(C2OCC(O)C(O)C2O)c2ccccc12 (stereo not drawn)
inactive: dose: 12.5 mg/kg/injection, schedule: Q01DX005 (ip), vehicle: distilled water + Tween-80 97 % of control | dose: 25.0 mg/kg/injection, schedule: Q01DX005 (ip), vehicle: distilled water + Tween-80 96 % of control | dose: 50.0 mg/kg/injection, schedule: Q01DX005 (ip), vehicle: distilled water + Tween-80 96 % of control | dose: 100.0 mg/kg/injection, schedule: Q01DX005 (ip), vehicle: distilled water + Tween-80 96 % of control | dose: 200.0 mg/kg/injection, schedule: Q01DX005 (ip), vehicle: distilled water + Tween-80 91 % of control
